What was measured:
[1] = Absorption/fluorescence spectroscopy and quantum yield under simulated physiological conditions (10% DMSO in PBS); format: physicochemical; conditions: excitation at 330 nm, PBS buffer containing 10% DMSO, pH 7.4, 37° C.; for quantum yield Φf: quinine sulfate standard
Procedure: All spectroscopic measurements of Compound 1 and the triazole products 1-A and 1-B were performed in a mixture of 10% DMSO in PBS buffer (FIG. 11). UV-vis spectra and fluorescence spectra were recorded on a Molecular Devices Spectramax M5 spectrometer. For each experiment, the absorbance spectra were measured within an absorbance range of 0.07 to 0.7 (l=[…]). Quantum yields were determined from the slope of the integrated fluorescence emission between 360 and 550 nm (excitation at 330 nm) versus absorbance using quinine sulfate (Φf=0.54±0.0 3)[^S3] as fluorescence standard. The quantum yield was calculated as an average of 4 points according to the following equation: Φsample=Φstandard(Astandard/Asample)(Fsample/Fstandard)(nsample/nstandard)^2 where “Φ” is the quantum yield, “A” is the absorbance at the excitation frequency, “F” is the area under the emission curve, and “n” is the refractive index of the solvent.
Formation of triazoles 1-A and 1-B were accompanied by a significant increase in fluorescence intensity with a large Stokes shift into a standard range for coumarin emission (FIG. 8a).

[2] = SPAAC kinetics with benzyl azide monitored by 1H-NMR; conditions: CD3CN, 25° C.
Procedure: The cycloaddition of compound 1 with benzyl azide was a second-order reaction. […] The second-order rate constant (k) was determined to be 0.015 M^−1s^−1 at 25° C. […] (Agard, et al., J. Am. Chem. Soc. 2004, 126, 15046; Ning, et al., Angew. Chem. Int. Ed. 2008, 47, 2253).
(§1) Experiment I: Compound 1 and benzyl azide were predissolved in CD3CN, and then mixed at equimolar concentration of 20 mM. The reaction was monitored by ^1H-NMR analysis over a period of 1 h. The concentration of each component was determined, based on the concentration of initial compound 1, by integration at multiple chemical shifts in the ^1H-NMR spectrum. By plotting 1/[1](M^−1) vs. time (sec), a second order rate constant in unit of M^−1s^−1 was determined using linear regression analysis. This procedure was repeated 3 times with a concentrated of 20 mM to afford a rate constant of 0.012 M^−1s^−1 at 25° C. (FIG. 4B).

[3] = SPAAC kinetics with N-azidoacetylmannosamine monitored by 1H-NMR; conditions: CD3OD/D2O (5:1, v/v), equimolar 20 mM, 25° C.
Procedure: as §1, with “II:” for “I:”, “N-azidoacetylmannosamine” for “benzyl azide”, “CD3OD/D2O (5:1, v/v),” for “CD3CN,”, “0.010” for “0.012”, “11).” for “4B).”

[4] = Time course of ligation with ManNAz by fluorescence spectroscopy; conditions: emission 435 nm, excitation 330 nm; 10% DMSO in PBS, 37° C.
Procedure: To probe the SPAAC reaction under the conditions that would be more typical for biomolecule labeling, the fluorescence response and time course for the reaction of Compound 1 with N-azidoacetylmannosamine (ManNAz) were investigated.
A solution of Compound 1 ([…]) and N-azidoacetylmannosamine (15 μmol) in a mixture of 10% DMSO in PBS buffer (2.5 mL) was incubated at 37° C. The fluorescence emission intensity at 435 nm upon excitation at 330 nm was monitored in 5 min intervals. For each point the fluorescence intensity was measured over a period of 5 sec and averaged over a total of 3 points. In a control experiment the same conditions were used except that N-acetylmannosamine (15 μmol) was added to the solution.

[5] = system: CL1-5 cells; assay: Fluorescence labeling of azido-glycoconjugates in live cells (time-lapse and confocal microscopy); format: cell-based
Procedure: To observe the fluorescence labeled azido-glycoconjugates in cells, CL1-5 cells (a lung cancer cell line) were seeded on chamber slide (2.5×10^4 cells/0.5 mL per wells) and incubated in culture medium (RPMI-1640 supplemented with 10% FBS, 100 U/mL penicillin, 100 μg/mL streptomycin, 1 mM L-glutamine and 1 mM sodium pyruvate) with either 200 μM control sugar (peracetylated N-acetylmannosamine, Ac4ManNAc) or azido-sugar (peracetylated azido-N-acetylmannosamine, Ac4ManNAz) for 3 days.
For Time-lapse imaging of live cells, experiments were carried out using a confocal microscope (TCS-SP5-MP-SMD, Leica) equipped with an incubator to keep the cells in culture conditions. Prewashed cells were incubated with 100 μM compound 1 in PBS buffer with 10% DMSO and images of cell were acquired at 450 nm emission and in 5-min intervals.
For comparing the localization of azido-glycans, probe-labeled cells were washed with PBS, fixed with 3% paraformaldehyde in PBS at room temperature for 20 min, permeablized with 0.2% Triton X-100 in PBS at room temperature for 20 min, and blocked with 3% bovine serum albumin in PBS at room temperature for 30 min. Cells were stained with fluorescein conjugated WGA lectin for Golgi, and propidium iodide (PI) for nucleus (FIG. 12).
Performance of Compound 1 in live cell imaging was investigated. Highly invasive lung cancer cells, CL1-5, were cultured in the presence of peracetylated azido-N-acetylmannosamine (Ac4ManNAz, 200 μM) for 3 days to metabolically produce the azido-sialic acid expressed cells. As a negative control, CL1-5 cells were grown in the presence of peracetylated N-acetylmannosamine (Ac4ManNAc, 200 μM). A time course experiment was conducted by treating 100 μM of Compound 1 (once) and conducted by exposing the cells at 5-min intervals under no-wash and no-fixation conditions (FIG. 8 and FIG. 12). […] Furthermore, the localization of azido-containing glycoconjugates in living cells was visualized by confocal microscopy. The cells labeled by Compound 1 were subsequently stained with fluorescein-conjugated WGA lectin (a Golgi marker) and propidium iodide (PI, a nucleus marker).

[6] = Photophysical properties of Compound 1 and its benzyl azide triazole regioisomers 3a/3b; format: physicochemical; conditions: for fluorescence emission λmax: upon irradiation; for extinction coefficient relative to Compound 1: at λmax 330 nm
Text: In one embodiment, Compound 1 reacted with benzyl azide in ethanol/water (1:1) in the absence of copper(I) catalyst to afford the cycloaddition product as a mixture of two triazole reigoisomers 3a and 3b. These two trizaole isomers were separated, and their photophysical properties were investigated, respectively. […] The quantum yields of triazole compounds 3a (Φf=0.23) and 3b (Φf=0.22) were 20-fold higher than Compound 1 (Φf=0.011).

[7] = Photophysical properties of alkynyl coumarin-indolium compound C and its CuAAC triazole product 18; format: physicochemical; conditions: 18: in aqueous solution; for extinction coefficient ε: at λmax 500 nm

SMILES: O=c1ccc2cc3c(cc2o1)C#CCCCC3 [Compound 1, 10,11-Dehydro-6,7,8,9-tetrahydro-cycloocta[g]chromen-2-one]
- fluorescence emission band [1]: 405 nm
- quantum yield Φf [1]: 0.011
- second order rate constant ([2]; benzyl azide, equimolar 20 mM, repeated 3 times): 0.012 M⁻¹ s⁻¹
- second-order rate constant (k) ([2]; cycloaddition with benzyl azide, 19 mM): 0.015 M⁻¹ s⁻¹
- second order rate constant [3]: 0.010 M⁻¹ s⁻¹
- time until fluorescence intensity reached a plateau [4]: less than 1 h
- fluorescence of Ac4ManNAz treated cells ([5]; 100 μM probe, 5-min intervals, no-wash, no-fixation): time-dependent increase of fluorescence intensity
- fluorescence of control cells (background labeling) ([5]; 100 μM probe, CL1-5 cells grown with 200 μM Ac4ManNAc): almost no fluorescence staining
- time until cell labeling complete ([5]; 100 μM probe, CL1-5 cells pre-treated with 200 μM Ac4ManNAz for 3 days, no-wash, no-fixation): 1.5 h
- localization of probe-labeled sialylated glycans ([5]; confocal microscopy, co-staining with fluorescein-WGA lectin (Golgi) and propidium iodide (nucleus)): partially co-localized with Golgi apparatus staining, but not with nucleus staining
- absorption band λmax [6]: 330 nm
- quantum yield Φf [6]: 0.011
- fluorescence emission λmax [6]: 400 nm

SMILES: O=c1ccc2cc3c(cc2o1)-c1nnn(Cc2ccccc2)c1CCCC3 [Compound 1-A, 10-Benzyl-6,7,8,9-tetrahydro-cyclooctatriazolo[5,4-g]chromen-2 (2H)-one]
- fluorescence emission band [1]: 435 nm
- quantum yield Φf [1]: 0.23

SMILES: O=C(Cn1nnc2c1CCCCc1cc3ccc(=O)oc3cc1-2)NC1C(O)OC(CO)[C@@H](O)C1O (stereo partly drawn) [Compound 1-B, N-[2-(11-Oxo-4,6,7,11-tetrahydrochromeno[7′,6′:3,4]cycloocta[1,2-d][1,2,3]triazol-3 (5H)-yl)]acetamido-2-deoxy-α,β-D-mannopyranose]
- fluorescence emission band [1]: 435 nm
- quantum yield Φf [1]: 0.21

SMILES: O=c1ccc2cc3c(cc2o1)-c1nnn(Cc2ccccc2)c1CCCC3 [Compound 3a]
- absorption band λmax [6]: 330 nm
- quantum yield relative to Compound 1 [6]: 20 fold
- quantum yield Φf [6]: 0.23
- extinction coefficient relative to Compound 1 [6]: ~2.5 fold
- fluorescence emission λmax [6]: 400 nm

SMILES: O=c1ccc2cc3c(cc2o1)-c1c(nnn1Cc1ccccc1)CCCC3 [Compound 3b]
- absorption band λmax [6]: 330 nm
- quantum yield relative to Compound 1 [6]: 20 fold
- quantum yield Φf [6]: 0.22
- extinction coefficient relative to Compound 1 [6]: ~2.5 fold
- fluorescence emission λmax [6]: 400 nm

SMILES: CC1(C)C(/C=C/c2cc3ccc(-c4cn(Cc5ccccc5)nn4)cc3oc2=O)=[N+](CCCCS(=O)(=O)[O-])c2ccccc21 [Compound 18]
- absorption λmax [7]: 500 nm
- fluorescence quantum yield Φf [7]: 0.56
- fluorescence λmax [7]: 520 nm
- extinction coefficient ε [7]: 32,000 M^−1 cm^−1

SMILES: C#Cc1ccc2cc(/C=C/C3=[N+](CCCCS(=O)(=O)[O-])c4ccccc4C3(C)C)c(=O)oc2c1 [Compound C, (E)-7-ethynyl-3-[N-(4-sulfonatobutyl)-3,3-dimethyl-3H-indolium-2-yl]ethenyl-2H-chromen-2-one]
- absorption λmax [7]: 500 nm
- fluorescence quantum yield Φf [7]: 0.017
- fluorescence λmax [7]: 515 nm
- extinction coefficient ε [7]: 8,600 M^−1 cm^−1
